Our source for the IC50 values is ChEMBL document CHEMBL1136234, “Cyclohexanedione herbicides are inhibitors of rat heart acetyl-CoA carboxylase” (Bioorg Med Chem Lett, 2003).

A value given as a limit tells only on which side of the number the result lay.

The first assay concerns the target T1, Acetyl-CoA carboxylase 1 (Rattus norvegicus, UniProt P11497). The assay can be described thus: Inhibitory concentration against rat heart ACC by the carboxylation of acetyl-CoA with [14C]HCO3- to form [14C]-malonyl CoA.
With `C=CCO/N=C(\CCC)C1=C(O)C(C(=O)OC)C(C)(C)CC1=O` (stereo unspecified) [ALLOXYDIM], the IC50 is more than 100 µM.

The target of a further assay is T1, Acetyl-CoA carboxylase 1. The assay is described as follows: Inhibitory concentration against rat heart ACC by the carboxylation of acetyl-CoA with [14C]-HCO3- to form [14C]-malonyl CoA; 18-40 uM.
For the molecule `CCC/C(=N\OCC)C1=C(O)CC(C2CCCSC2)CC1=O` (stereo unspecified), the half-inhibitory concentration (IC50) is 40 µM.

`CCSC(C)CC1CC(=O)C(/C(CC)=N/OC/C=C/Cl)=C(O)C1` (stereo unspecified) [CLETHODIM]: the IC50 turned out to be 40 µM.

The molecule `CCC/C(=N\OCC)C1=C(O)CC(CC(C)SCC)CC1=O` (stereo unspecified) [SETHOXYDIM] showed an IC50 of 40 µM. This counts as double-digit micromolar.

Turning to `CC/C(=N\OC/C=C/Cl)C1=C(O)CC(C2CCOCC2)CC1=O` (stereo unspecified) [TEPRALOXYDIM], inhibition was half-maximal at 40 µM (IC50).

The molecule `CCO/N=C(\CC)C1=C(O)CC(c2c(C)cc(C)cc2C)CC1=O` (stereo unspecified) [TRALKOXYDIM] yielded a half-inhibitory concentration (IC50) of 40 µM.
